Measurements published in paper PMC12584752, “Covalent fragment screening to inhibit the E3 ligase activity of bacterial NEL enzymes SspH1 and SspH2” (RSC Chemical Biology, 2025).
Entries after “also recorded” stand apart in the source; their conditions may differ.

What was measured:
Test in all cases: Intact LC-MS labelling selectivity
Format in all cases: binding
Details in all cases: dilution series 100–6.25 μM, 24 hours at 4 °C
[1] = target: T1, RBR-type E3 HOIL (Homo sapiens, UniProt Q9BYM8)
T1 construct: HOIL aa 1–510; His-tag (N, cleaved yes); made in house; host or cells: E. coli BL21
T1 sequence (Q9BYM8 1-510): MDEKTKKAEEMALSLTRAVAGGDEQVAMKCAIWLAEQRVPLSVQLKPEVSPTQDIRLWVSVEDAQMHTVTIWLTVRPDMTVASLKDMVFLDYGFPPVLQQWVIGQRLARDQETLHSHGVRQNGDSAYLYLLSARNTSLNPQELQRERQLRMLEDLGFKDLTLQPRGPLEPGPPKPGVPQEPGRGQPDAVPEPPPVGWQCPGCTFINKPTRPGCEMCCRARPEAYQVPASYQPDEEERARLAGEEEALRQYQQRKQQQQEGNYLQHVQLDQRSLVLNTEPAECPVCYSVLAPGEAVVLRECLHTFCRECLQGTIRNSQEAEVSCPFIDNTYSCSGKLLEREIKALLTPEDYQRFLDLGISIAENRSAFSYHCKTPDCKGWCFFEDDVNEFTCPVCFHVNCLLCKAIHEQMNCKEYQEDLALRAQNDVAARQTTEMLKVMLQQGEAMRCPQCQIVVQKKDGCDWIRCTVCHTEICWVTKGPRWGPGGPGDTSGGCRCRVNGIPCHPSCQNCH
Description: (§1) Fig. 3 Validation of HTC hit compounds by intact MS. Labelling heatmaps of dilution series (100–6.25 μM) of compounds 4–10 with (A) WT SspH1 and (B) C492K SspH1. Labelling heatmaps of dilution series of (C) compound 6 and (D) compound 7 with bacterial and human ubiquitin binding proteins. Recombinant proteins were incubated at either 1.0 or 0.5 μM with 50 μM fragments for 24 hours at 4 °C, before fragment labelling was analysed by intact LC-MS. Bacterial proteins are shown in bold and human proteins in italic fonts. (E)–(H) Kinetics analyses: time courses (0–12 hours) of compound labelling (100–1.56 μM) of SspH1 and SspH2 (0.5 μM) for (E) SspH1 and compound 7, and (F) SspH2 and compound 6. Measurements were performed in technical triplicates. Labelling percentages were plotted against time in GraphPad Prism v.10, and curves fitted separately for each replicate using one-phase association, with constraints Y0 = 0 and plateau = highest labelling percentage. Graphs for SspH1 and compound 6, and SspH2 and compound 7 are shown in Fig. S4A and B. Rate constants (kobs, as given by Graphpad Prism calculated K values) were plotted against fragment concentration in triplicate for (G) SspH1 and (H) SspH2. Straight lines were fitted with constraint Yintercept = 0. For SspH2 kinetics, 100 μM kobs was outside the linear range.
(§2) To mitigate the risk of selecting compounds which indiscriminately recognise ubiquitin binding proteins, we next performed preliminary selectivity studies with compounds 6 and 7 against human ubiquitin system proteins. […] In parallel, we tested the compounds against related NEL E3 ligases SspH2 and IpaH9.8. […] Our identification of dual SspH1 and SspH2 ligands is likely due to the high protein sequence similarity of SspH1 and SspH2 (60% for full length; 78% for NEL domains).
(§3) Dilution series experiments were performed as for 1st round screening. 1 μM OTUD4, OTUD5 or 0.5 μM HOIL, UbcH5A, SspH2, SspH1 C492K were incubated with 100–6.25 μM compounds for 24 hours at 4 °C, in 25 mM HEPES pH 7.5, 50 mM NaCl buffer. Intact protein LC-MS was performed as previously described.[40] The following deconvolution conditions were used for recombinant proteins studied in this work: […]

[2] = target: T2, human E2 UbcH5A (Homo sapiens, UniProt P51668)
T2 construct: UbcH5A aa 1–147; His-tag (N, cleaved yes); made in house; host or cells: E. coli BL21
Description: as §1, §2, §3

[3] = target: T3, DUB OTUD4 (Homo sapiens, UniProt Q01804)
T3 construct: OTUD4 aa 1–156; His-tag (N, cleaved yes); made in house; host or cells: E. coli BL21
T3 sequence (Q01804 1-156): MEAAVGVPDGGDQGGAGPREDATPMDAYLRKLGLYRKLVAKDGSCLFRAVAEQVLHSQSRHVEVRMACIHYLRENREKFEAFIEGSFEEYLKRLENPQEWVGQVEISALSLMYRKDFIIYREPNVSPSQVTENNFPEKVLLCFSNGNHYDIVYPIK
Description: as §1, §2, §3

[4] = target: T4, DUB OTUD5 (Homo sapiens, UniProt Q96G74)
T4 construct: OTUD5 aa 172–351; His-tag (N, cleaved yes); made in house; host or cells: E. coli BL21
T4 sequence (Q96G74 172-351): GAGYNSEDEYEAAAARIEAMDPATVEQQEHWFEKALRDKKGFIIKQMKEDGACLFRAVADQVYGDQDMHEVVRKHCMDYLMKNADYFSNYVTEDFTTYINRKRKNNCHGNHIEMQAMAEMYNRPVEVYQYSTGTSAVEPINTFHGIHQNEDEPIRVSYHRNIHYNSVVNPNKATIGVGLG
Description: as §1, §2, §3

[5] = target: T5, HECT-type E3 UBE3C (Homo sapiens, UniProt Q15386)
T5 construct: UBE3C; 693–1083; His-tag (N, cleaved yes); made in house; host or cells: E. coli BL21
T5 sequence (Q15386 693-1083): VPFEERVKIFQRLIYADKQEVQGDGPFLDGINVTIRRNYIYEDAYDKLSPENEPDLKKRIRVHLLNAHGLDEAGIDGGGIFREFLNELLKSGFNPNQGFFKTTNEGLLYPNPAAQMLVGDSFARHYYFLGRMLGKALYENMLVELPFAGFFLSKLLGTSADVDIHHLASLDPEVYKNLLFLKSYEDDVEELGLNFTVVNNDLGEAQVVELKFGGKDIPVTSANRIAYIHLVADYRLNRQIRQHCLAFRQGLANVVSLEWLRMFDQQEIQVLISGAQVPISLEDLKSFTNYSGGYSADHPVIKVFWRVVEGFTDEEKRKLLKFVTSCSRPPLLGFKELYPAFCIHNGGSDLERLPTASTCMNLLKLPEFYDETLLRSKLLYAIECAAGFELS
Description: as §1, §2, §3

T2 sequence (P51668 whole entry, the tested form may be a part): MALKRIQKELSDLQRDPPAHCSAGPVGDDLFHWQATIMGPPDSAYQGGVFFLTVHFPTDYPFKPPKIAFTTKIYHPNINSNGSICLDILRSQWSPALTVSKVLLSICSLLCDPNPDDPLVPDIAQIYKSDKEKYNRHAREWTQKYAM

SMILES	labelling of HOIL [1]	labelling of UbcH5A [2]	labelling of OTUD4 [3]	labelling of OTUD5 [4]	labelling of UBE3C [5]
Cc1cc(-c2nc3ccccc3n2C2CCN(C(=O)CCl)CC2)cc(C)c1O.Cl [compound 6]	minimal or no labelling	minimal or no labelling; also recorded: not labelled	minimal or no labelling	minimal or no labelling	minimal or no labelling
Cl.O=C(CCl)N1CCC(n2c(-c3ccc(C(F)(F)F)cc3)nc3ccccc32)CC1 [compound 7]	minimal or no labelling	minimal or no labelling; also recorded: not labelled	minimal or no labelling	minimal or no labelling	minimal or no labelling
